Results from ChEMBL document CHEMBL1909046, “DrugMatrix in vitro pharmacology data”.
pIC50, pKi: −log10 of the molar value.

Experiments:
[1] = biological target: T1, Alpha-2A adrenergic receptor (Homo sapiens, UniProt P08913); format: cell membranes, Sf9, Membrane; conditions: sf9; also: in other assays of this panel Not Active means under 50% inhibition at 10 µM
T1 sequence (P08913 whole entry): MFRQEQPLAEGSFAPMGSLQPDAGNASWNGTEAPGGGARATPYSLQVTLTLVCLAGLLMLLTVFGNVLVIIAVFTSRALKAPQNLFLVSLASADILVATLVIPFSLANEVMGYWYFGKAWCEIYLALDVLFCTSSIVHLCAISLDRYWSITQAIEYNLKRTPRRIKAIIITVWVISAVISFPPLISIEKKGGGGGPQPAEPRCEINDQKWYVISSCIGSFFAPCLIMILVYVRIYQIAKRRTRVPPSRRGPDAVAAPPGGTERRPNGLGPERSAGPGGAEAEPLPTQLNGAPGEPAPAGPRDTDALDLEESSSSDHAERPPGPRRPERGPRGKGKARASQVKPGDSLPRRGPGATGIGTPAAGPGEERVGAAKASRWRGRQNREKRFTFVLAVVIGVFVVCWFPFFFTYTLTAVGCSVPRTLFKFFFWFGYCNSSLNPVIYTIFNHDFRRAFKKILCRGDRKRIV

[2] = biological target: Beta-1 adrenergic receptor (Homo sapiens, UniProt P08588); experiment: DRUGMATRIX: Adrenergic beta1 radioligand binding (ligand: [125I] Cyanopindolol); format: cell membranes, CHO-K1, Membrane; conditions: cho-k1; Not Active = under 50% inhibition at 10 µM
Sequence of Beta-1 adrenergic receptor (P08588 whole entry): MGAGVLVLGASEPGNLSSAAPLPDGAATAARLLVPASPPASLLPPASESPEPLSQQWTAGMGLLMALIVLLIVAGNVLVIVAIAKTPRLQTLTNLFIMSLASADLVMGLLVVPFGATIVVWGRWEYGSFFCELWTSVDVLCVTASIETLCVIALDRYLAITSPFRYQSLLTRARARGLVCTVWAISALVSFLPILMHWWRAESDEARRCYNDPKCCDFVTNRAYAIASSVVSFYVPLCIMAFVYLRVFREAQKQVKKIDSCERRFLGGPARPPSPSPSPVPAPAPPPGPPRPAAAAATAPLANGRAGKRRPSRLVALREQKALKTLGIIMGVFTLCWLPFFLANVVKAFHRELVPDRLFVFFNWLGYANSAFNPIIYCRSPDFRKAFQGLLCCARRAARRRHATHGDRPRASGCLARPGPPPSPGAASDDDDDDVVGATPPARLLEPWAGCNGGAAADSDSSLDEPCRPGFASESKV

[3] = biological target: Beta-3 adrenergic receptor (Homo sapiens, UniProt P13945); experiment: DRUGMATRIX: Adrenergic beta3 radioligand binding (ligand: [125I] Cyanopindolol); format: cell membranes, HEK293, Membrane; conditions: hek293; Not Active = under 50% inhibition at 10 µM
Sequence of Beta-3 adrenergic receptor (P13945 whole entry): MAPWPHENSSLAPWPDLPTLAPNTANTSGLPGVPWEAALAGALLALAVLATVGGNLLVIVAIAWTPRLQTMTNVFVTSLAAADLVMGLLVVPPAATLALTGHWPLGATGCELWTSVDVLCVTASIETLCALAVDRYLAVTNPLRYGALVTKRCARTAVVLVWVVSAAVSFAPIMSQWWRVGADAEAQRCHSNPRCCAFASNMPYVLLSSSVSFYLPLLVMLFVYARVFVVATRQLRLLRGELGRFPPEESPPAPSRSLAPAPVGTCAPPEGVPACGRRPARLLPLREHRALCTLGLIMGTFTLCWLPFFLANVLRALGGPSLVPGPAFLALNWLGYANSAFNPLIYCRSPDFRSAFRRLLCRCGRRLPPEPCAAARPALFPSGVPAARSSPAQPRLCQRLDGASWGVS

[4] = DRUGMATRIX: Calcium Channel Type L, Dihydropyridine radioligand binding (ligand: [3H] Nitrendipine); format: cell membranes, Rattus norvegicus, Wistar, Cerebral cortex, Membrane; conditions: Not Active = under 50% inhibition at 10 µM
[5] = DRUGMATRIX: Tumor Necrosis Factor (TNF), Non-Selective radioligand binding (ligand: [125I] TNF-alpha); format: cell membranes, Membrane; conditions: u-937; Not Active = under 50% inhibition at 10 µM
Caspase-1 = biological target: T2, Caspase-1 (Homo sapiens, UniProt P29466); set-up: species or system Escherichia coli;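 also: Caspase-1 enzyme inhibition assay with a peptide substrate; in other assays of this panel Not Active means under 50% inhibition at 10 µM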
T2 sequence (P29466 whole entry): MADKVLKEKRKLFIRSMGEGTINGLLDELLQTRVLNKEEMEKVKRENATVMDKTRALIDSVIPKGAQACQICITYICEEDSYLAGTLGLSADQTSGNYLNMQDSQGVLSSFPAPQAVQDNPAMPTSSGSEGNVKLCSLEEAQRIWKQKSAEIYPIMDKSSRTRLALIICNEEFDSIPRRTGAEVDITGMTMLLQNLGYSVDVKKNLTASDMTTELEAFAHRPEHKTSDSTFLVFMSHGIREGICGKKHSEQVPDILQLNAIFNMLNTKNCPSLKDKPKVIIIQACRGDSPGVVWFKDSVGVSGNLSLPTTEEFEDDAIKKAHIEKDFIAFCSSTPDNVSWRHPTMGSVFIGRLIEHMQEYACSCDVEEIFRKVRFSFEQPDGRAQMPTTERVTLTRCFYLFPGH

Row | Compound | IC50 [1] | IC50 [2] | IC50 [3] | IC50 [4] | Ki [4] | IC50 [5] | Ki [5] | IC50 (Caspase-1) | pIC50 ([4]; read-out: IC50) | pKi ([4]; read-out: Ki) | Ki [1] | Ki [2] | Ki [3] | Ki (Caspase-1)
1 | [N-]=[N+]=CC(=O)OC[C@H](N)C(=O)O [AZASERINE] | Not Active | Not Active | Not Active | Not Active | Not Active | Not Active | Not Active | Not Active | – | – | – | – | – | –
2 | CCOC(=O)C1=C(C)NC(C)=C(C(=O)OC)C1c1cccc(Cl)c1Cl (stereo not drawn) [FELODIPINE] | Not Active | Not Active | Not Active | – | – | Not Active | Not Active | Not Active | 10.09 | 10.28 | – | – | – | –
3 | C[C@H](C(=O)O)c1cccc(C(=O)c2ccccc2)c1 [DEXKETOPROFEN] | Not Active | Not Active | Not Active | Not Active | Not Active | Not Active | Not Active | Not Active | – | – | – | – | – | –
4 | Cc1cn[nH]c1 [FOMEPIZOLE] | Not Active | Not Active | Not Active | Not Active | Not Active | Not Active | Not Active | Not Active | – | – | – | – | – | –
5 | O=c1cc(-c2ccccc2)oc2ccc3ccccc3c12 [BETA-NAPHTHOFLAVONE] | Not Active | Not Active | Not Active | Not Active | Not Active | Not Active | Not Active | Not Active | – | – | – | – | – | –
6 | Cc1c(N(C)CS(=O)(=O)[O-])c(=O)n(-c2ccccc2)n1C.[Na+] [DIPYRONE SODIUM] | Not Active | Not Active | Not Active | Not Active | Not Active | Not Active | Not Active | Not Active | – | – | – | – | – | –
7 | CN1C(=O)CN=C(c2ccccc2)c2cc(Cl)ccc21 [DIAZEPAM] | Not Active | Not Active | Not Active | Not Active | Not Active | Not Active | Not Active | Not Active | – | – | – | – | – | –
8 | CO[C@H]1[C@@H](O)[C@H](N)[C@@H](O[C@H]2O[C@H]([C@H](C)N)CC[C@H]2N)[C@H](O)[C@@H]1N(C)C(=O)CN [ASTROMICIN] | Not Active | Not Active | Not Active | Not Active | Not Active | Not Active | Not Active | Not Active | – | – | – | – | – | –
9 | CCn1cc(C(=O)O)c(=O)c2cc(F)c(N3CCNCC3)nc21 [ENOXACIN] | Not Active | Not Active | Not Active | Not Active | Not Active | Not Active | Not Active | Not Active | – | – | – | – | – | –
10 | CCC(=O)O[C@H]1[C@H](O[C@@H]2[C@@H](C)[C@H](O[C@H]3C[C@@](C)(OC)[C@@H](O)[C@H](C)O3)[C@@H](C)C(=O)O[C@H](CC)[C@@](C)(O)[C@H](O)[C@@H](C)C(=O)[C@H](C)C[C@@]2(C)O)O[C@H](C)C[C@@H]1N(C)C [ERYTHROMYCIN PROPIONATE] | Not Active | Not Active | Not Active | Not Active | Not Active | Not Active | Not Active | Not Active | – | – | – | – | – | –
11 | COBALT(II) ACETYLACETONATE | Not Active | Not Active | Not Active | Not Active | Not Active | Not Active | Not Active | Not Active | – | – | Not Active | Not Active | Not Active | Not Active
12 | N[C@@H](Cc1ccc(F)cc1)C(=O)O | Not Active | Not Active | Not Active | Not Active | Not Active | Not Active | Not Active | Not Active | – | – | – | – | – | –
13 | O=C(O)Cc1ccc(-c2ccccc2)cc1 [FELBINAC] | Not Active | Not Active | Not Active | Not Active | Not Active | Not Active | Not Active | Not Active | – | – | – | – | – | –
